From patent US9133178B2, “Alpha-7 nicotinic receptor modulators for the treatment of pain, a psychotic disorder, cognitive impairment or alzheimer'S disease” (Proximagen Limited, priority 2010, dated 2015)
Where a name gives a salt, the structure may show the parent alone. Read-outs that look alike come from different tables or passages of the source.

Target: T1, human α7 nAChR (Homo sapiens, UniProt P36544)
T1 construct: expressed in transfected cells; host or cells: GH4C1 (rat pituitary cell line)
T1 sequence (P36544 23-502): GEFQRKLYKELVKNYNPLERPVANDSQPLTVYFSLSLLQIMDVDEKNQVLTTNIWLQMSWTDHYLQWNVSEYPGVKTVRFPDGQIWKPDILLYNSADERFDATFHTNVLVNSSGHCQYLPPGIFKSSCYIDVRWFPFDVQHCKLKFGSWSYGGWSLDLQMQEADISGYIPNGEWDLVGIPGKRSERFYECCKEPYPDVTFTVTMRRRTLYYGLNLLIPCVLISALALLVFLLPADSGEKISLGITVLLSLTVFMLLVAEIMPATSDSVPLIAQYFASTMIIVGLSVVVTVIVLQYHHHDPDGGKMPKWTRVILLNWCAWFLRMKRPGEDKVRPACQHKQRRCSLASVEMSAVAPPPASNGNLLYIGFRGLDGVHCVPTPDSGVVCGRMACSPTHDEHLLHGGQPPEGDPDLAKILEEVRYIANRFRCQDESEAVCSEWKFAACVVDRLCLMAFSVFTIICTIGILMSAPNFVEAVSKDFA
Experiment: cell-based calcium flux assay (FLIPR) for PAM activity at the α7 nAChR
Experimental: The PAM activity of the compounds of the invention at the α7 nAChR may be determined using the following cell-based calcium flux assay which uses a Fluorimetric Image Plate Reader (FLIPR) (see Schroeder et al.; J. Biomolecular Screening, 1(2), p 75-80, 1996).
GH4C1 cell line stably transfected with human α7 nAChR was suspended in a 384 well plate and incubated at 30° C. for 48 h in a 5% carbon dioxide atmosphere. The growth media was removed and the cells washed three times with a solution of Hanks' balanced salt solution (HBSS), 20 mM HEPES and 2.5 mM probenecid leaving 20 μl washing solution in each well. A loading solution (200) containing HBSS, probenecid, 1-4 μM Fluo4 AM (a calcium indicator dye) and pluronic acid was added and the plate incubated for 45 min at 37° C. under an atmosphere free from carbon dioxide. The cells were washed three times leaving 30 μl in each well. The plate containing the cells and calcium indicator dye were then transferred to the FLIPR. The assay was initiated by collecting baseline datapoints at 10 second intervals followed by addition of the test compound in buffer solution (0.33% DMSO) and diluted to a final concentration of 10 μM and serial dilution of the wells, 1:2 or 1:3, gave a low concentration of <1 nM. Following a further 5-10 mins 10 μl of 50 μM nicotine was added and data collected for 2 to 3 mins. Nicotine produced a rapid, transient and reproducible calcium flux which could be potentiated with the positive allosteric modulator test compounds.

[1] = Table 1, potentiation of nicotine-evoked calcium flux, GH4C1 cells stably transfected with human α7 nAChR, read-out: a7 new sm > PXC50 MEAN
[2] = Table 2, commercially available compounds, potentiation of nicotine-evoked calcium flux, GH4C1 cells stably transfected with human α7 nAChR, read-out: a7 new sm > PXC50 MEAN

Row | SMILES | EC50 [1] [µM] | EC50 [2] [µM] | further results
1 | Cc1cc(-c2cnc(N3C[C@@H](C)O[C@@H](C)C3)nc2-c2ccccc2C#N)ccn1 | – | – | EC50 (further batch (as the HCl salt), read-out: pEC50 (converted)): > 10 µM; maximum potentiation of the response area relative to nicotine control (further batch (as the HCl salt)): approximately 1200%; EC50 (potentiation of nicotine-evoked calcium flux, read-out: pEC50 (converted)): ~2.51 µM; maximum potentiation of the response area relative to nicotine control: approximately 1200%
2 | Cc1cc(-c2cnc(N3C[C@H](C)O[C@@H](C)C3)nc2-c2ccoc2C)ccn1 (relative stereo) [Example 6, trans-2,6-Dimethyl-4-[4-(2-methyl-3-furanyl)-5-(2-methyl-4-pyridinyl)-2-pyrimidinyl]morpholine hydrochloride] | ≤ 1 | – | –
3 | Cc1occc1-c1nc(N2CCCC2)ncc1-c1ccncc1 [ADM 13269675] | – | ≤ 3.16 | –
4 | Cc1occc1-c1nc(N2CCCCC2)ncc1-c1ccncc1 [ADM 13269676] | – | ≤ 1 | –
5 | Cc1occc1-c1nc(N2CCCC(C)C2)ncc1-c1ccncc1 (centres unmarked) [ADM 13269678] | – | ≤ 1 | –
6 | Cc1occc1-c1nc(N2CCSCC2)ncc1-c1ccncc1 [ADM 13269686] | – | ≤ 3.16 | –
7 | Cc1occc1-c1nc(N2CC(C)OC(C)C2)ncc1-c1ccncc1 (centres unmarked) [ADM 13269721] | – | ≤ 1 | –
8 | Cc1occc1-c1nc(N2CCN(C(=O)c3ccco3)CC2)ncc1-c1ccccn1 [ADM 13270126] | – | ≤ 10 | –
9 | Cc1ccc(-c2nc(N3CCCC3)ncc2-c2cc(C)no2)cn1 [ADM 14220366] | – | ≤ 10 | –
10 | Cc1ccc(-c2nc(N3CCCC(C)C3)ncc2-c2cc(C)no2)cn1 (centres unmarked) [ADM 14220368] | – | ≤ 1 | –
11 | Cc1ccc(-c2nc(N3CCCCC3)ncc2-c2cc(C)no2)cn1 [ADM 14220371] | – | ≤ 1 | –
12 | Cc1cc(-c2cnc(N3CCSCC3)nc2-c2ccc(C)s2)on1 [ADM 14408364] | – | ≤ 3.16 | –
13 | c1cc(-c2cnc(N3CCSCC3)nc2-c2ccoc2)ccn1 [ADM 14465558] | – | ≤ 1 | –
14 | c1cc(-c2cnc(N3CCCCC3)nc2-c2ccoc2)ccn1 [ADM 14465561] | – | ≤ 10 | –
15 | Cc1cc(-c2cnc(N3CCSCC3)nc2-c2ccc(C)o2)on1 [AEM 14465590] | – | ≤ 3.16 | –
16 | c1ccc(-c2nnc(N3CCCC3)nc2-c2ccccc2)cc1 [AO-476/43380313] | – | ≤ 1 | –
17 | Cc1ccc(-c2nc(N3CCCCC3)ncc2-c2ccncc2)cn1 [AOP 13274014] | – | ≤ 3.16 | –
18 | Cc1ccc(-c2nc(N3CCCC(C)C3)ncc2-c2ccncc2)cn1 (centres unmarked) [AOP 13274016] | – | ≤ 1 | –
19 | Cc1noc(C)c1-c1nc(N2CCCC(C)C2)ncc1-c1ccncc1 (centres unmarked) [AOP 14465526] | – | ≤ 3.16 | –
20 | Cc1noc(C)c1-c1nc(N2CCSCC2)ncc1-c1ccncc1 [AOP 14465529] | – | ≤ 10 | –
21 | Cc1noc(C)c1-c1nc(N2CCCCCC2)ncc1-c1ccncc1 [AOP 14465544] | – | ≤ 3.16 | –
22 | Cc1occc1-c1nc(N2CCCCCC2)ncc1-c1ccncc1 [ATL 13269690 or ADM 13269690] | – | ≤ 3.16 | –

Row | SMILES | EC50 [1] [µM] | EC50 [2] [µM] | further results
23 | COc1cc(-c2cnc(N3CCCC3)nc2-c2ccco2)nc(OC)n1 [ATL 14631887] | – | ≤ 10 | –
24 | COc1cc(-c2cnc(N3CCCCC3)nc2-c2ccco2)nc(OC)n1 [ATL 14631888] | – | ≤ 10 | –
25 | Cc1occc1-c1nc(N2CCCC(C)C2)ncc1-c1ccncc1 (centres unmarked) [Example 1, 4-(2-Methyl-3-furanyl)-2-(3-methyl-1-piperidinyl)-5-(4-pyridinyl)pyrimidine hydrochloride] | ≤ 1 | – | –
26 | Cc1occc1-c1nc(N2CCCC(C)C2)ncc1-c1cccnc1 (centres unmarked) [Example 2, 4-(2-Methyl-3-furanyl)-2-(3-methyl-1-piperidinyl)-5-(3-pyridinyl)pyrimidine hydrochloride] | ≤ 10 | – | –
27 | Cc1cc(-c2cnc(N3CCCC(C)C3)nc2-c2ccoc2C)ccn1 (centres unmarked) [Example 3, 4-(2-Methyl-3-furanyl)-2-(3-methyl-1-piperidinyl)-5-(2-methyl-4-pyridinyl)pyrimidine hydrochloride] | ≤ 1 | – | –
28 | Cc1cc(-c2cnc(N3CCCCC3)nc2-c2ccoc2C)ccn1 [Example 4, 4-(2-Methyl-3-furanyl)-5-(2-methyl-4-pyridinyl)-2-(1-piperidinyl)pyrimidine hydrochloride] | ≤ 1 | – | –
29 | Cc1cc(-c2cnc(N3C[C@@H](C)O[C@@H](C)C3)nc2-c2ccoc2C)ccn1 [Example 5, cis-2,6-Dimethyl-4-[4-(2-methyl-3-furanyl)-5-(2-methyl-4-pyridinyl)-2-pyrimidinyl]morpholine hydrochloride] | ≤ 1 | – | –
30 | Cc1occc1-c1nc(N2CCCCCC2)ncc1-c1ccccn1 [Example 7, 1-[4-(2-Methyl-3-furanyl)-5-(2-Pyridinyl)-2-pyrimidinyl]hexahydro-1H-azepine hydrochloride] | ≤ 10 | – | –
31 | Cc1occc1-c1nc(N2CCCC(C)C2)ncc1-c1ccccn1 (centres unmarked) [Example 8, 4-(2-Methyl-3-furanyl)-2-(3-methyl-1-piperidinyl)-5-(2-pyridinyl)pyrimidine hydrochloride] | ≤ 3.16 | – | –
32 | Cc1cc(-c2cnc(N3C[C@@H](C)O[C@@H](C)C3)nc2CC(C)C)ccn1 [Example 9, cis-2,6-Dimethyl-4-[4-(2-methylpropyl)-5-(2-methyl-4-pyridinyl)-2-pyrimidinyl]morpholine hydrochloride] | ≤ 1 | – | –
33 | Cc1cc(-c2ncc(N3C[C@@H](C)O[C@@H](C)C3)nc2-c2ccoc2C)ccn1 [Example 10, cis-2,6-Dimethyl-4-[6-(2-methyl-3-furanyl)-5-(2-methyl-4-pyridinyl)-2-pyrazinyl]morpholine hydrochloride] | ≤ 3.16 | – | –
34 | Cc1cc(-c2cnc(N3C[C@@H](C)O[C@@H](C)C3)cc2-c2ccoc2C)ccn1 [Example 11, 6-(cis-2,6-dimethyl-4-morpholinyl)-2′-methyl-4-(2-methyl-3-furanyl)-3,4′-bipyridine hydrochloride] | ≤ 3.16 | – | –
35 | Cc1cc(-c2ccc(N3C[C@@H](C)O[C@@H](C)C3)nc2-c2ccoc2C)ccn1 [Example 12, 6-(cis-2,6-dimethyl-4-morpholinyl)-2′-methyl-2-(2-methyl-3-furanyl)-3,4′-bipyridine hydrochloride] | ≤ 3.16 | – | –
36 | Cc1cc(-c2ccc(N3C[C@@H](C)O[C@@H](C)C3)cc2-c2ccoc2C)ccn1 [Example 13, cis-2,6-Dimethyl-4-[3-(2-methyl-3-furanyl)-4-(2-methyl-4-pyridinyl)phenyl]morpholine] | ≤ 1 | – | –
37 | Cc1cc(-c2cnc(N3C[C@@H](C)O[C@@H](C)C3)nc2-c2ccccc2C)ccn1 [Example 14, cis-2,6-Dimethyl-4-[4-(2-methylphenyl)-5-(2-methyl-4-pyridinyl)-2-pyrimidinyl]morpholine] | ≤ 3.16 | – | –
38 | Cc1cnccc1-c1cnc(N2C[C@@H](C)O[C@@H](C)C2)nc1-c1ccoc1C [Example 15, cis-2,6-dimethyl-4-[4-(2-methyl-3-furanyl)-5-(3-methyl-4-pyridinyl)-2-pyrimidinyl]morpholine hydrochloride] | ≤ 3.16 | – | –
39 | Cc1cc(-c2cnc(N3C[C@@H](C)O[C@@H](C)C3)nc2-c2cccnc2C(F)(F)F)ccn1 [Example 16, cis-2,6-Dimethyl-4-{5-(2-methyl-4-pyridinyl)-4-[2-(trifluoromethyl)-3-pyridinyl]-2-pyrimidinyl}morpholine hydrochloride] | ≤ 10 | – | –
40 | Cc1cc(-c2cnc(N3C[C@@H](C)O[C@@H](C)C3)nc2-c2cnc(F)cc2C)ccn1 [Example 17, cis-4-[4-(6-Fluoro-4-methyl-3-pyridinyl)-5-(2-methyl-4-pyridinyl)-2-pyrimidinyl]-2,6-dimethylmorpholine hydrochloride] | ≤ 3.16 | – | –
41 | Cc1cc(-c2cnc(N3C[C@@H](C)O[C@@H](C)C3)nc2-c2cc(F)ccc2C#N)ccn1 [Example 18, cis-2-[2-(2,6-Dimethyl-4-morpholinyl)-5-(2-methyl-4-pyridinyl)-4-pyrimidinyl]-4-fluorobenzonitrile hydrochloride] | ≤ 10 | – | –
42 | Cc1cc(-c2cnc(N3C[C@@H](C)O[C@@H](C)C3)nc2-c2cccc(C(F)(F)F)c2C#N)ccn1 [Example 19, cis-2-[2-(2,6-dimethyl-4-morpholinyl)-5-(2-methyl-4-pyridinyl)-4-pyrimidinyl]-6-(trifluoromethyl)benzonitrile hydrochloride] | ≤ 1 | – | –
43 | CC1CCCN(c2ncc(-c3ccncc3)c(-c3ccco3)n2)C1 (centres unmarked) [LMK 13268083] | – | ≤ 10 | –
44 | c1coc(-c2cnc(N3CCSCC3)nc2-c2ccco2)c1 [LMK 13280444] | – | ≤ 3.16 | –
